Experiments:
[1] = test system: EGFR (human), P00533 [G719S]; assay: KINOMEscan competition binding; details: compound 10.0 µM
[2] = target: DAPK1 (human) (UniProt P53355); assay: KINOMEscan competition binding; details: compound 10.0 µM
[3] = target: GAK (human) (UniProt O14976); assay: KINOMEscan competition binding; details: compound 10.0 µM
[4] = target: CIT (human) (UniProt O14578); assay: KINOMEscan competition binding; details: compound 10.0 µM
[5] = target: RPS6KA4 KD2 (human) (UniProt O75676); assay: KINOMEscan competition binding; details: compound 10.0 µM
[6] = target: ACVR2B (human) (UniProt Q13705); assay: KINOMEscan competition binding; details: compound 10.0 µM
[7] = target: PIK3CD (human) (UniProt O00329); assay: KINOMEscan competition binding; details: compound 10.0 µM
[8] = target: TIE1 (human) (UniProt P35590); assay: KINOMEscan competition binding; details: compound 10.0 µM
[9] = target: TYK2 JH2 pseudokinase (human) (UniProt P29597); assay: KINOMEscan competition binding; details: compound 10.0 µM
[10] = target: AAK1 (human) (UniProt Q2M2I8); assay: KINOMEscan competition binding; details: compound 10.0 µM
[11] = target: HIPK1 (human) (UniProt Q86Z02); assay: KINOMEscan competition binding; details: compound 10.0 µM
[12] = target: PIK3C2B (human) (UniProt O00750); assay: KINOMEscan competition binding; details: compound 10.0 µM
[13] = target: PIM2 (human) (UniProt Q9P1W9); assay: KINOMEscan competition binding; details: compound 10.0 µM
[14] = target: PIK3CG (human) (UniProt P48736); assay: KINOMEscan competition binding; details: compound 10.0 µM
[15] = target: CSNK2A2 (human) (UniProt P19784); assay: KINOMEscan competition binding; details: compound 10.0 µM
[16] = target: STK17B (human) (UniProt O94768); assay: KINOMEscan competition binding; details: compound 10.0 µM
[17] = test system: EGFR (human), P00533 [G719C; 746-750 del]; assay: KINOMEscan competition binding; details: compound 10.0 µM
[18] = test system: EGFR (human), P00533 [747-751 del / S ins]; assay: KINOMEscan competition binding; details: compound 10.0 µM
[19] = target: DAPK2 (human) (UniProt Q9UIK4); assay: KINOMEscan competition binding; details: compound 10.0 µM
[20] = target: MAPK15 (human) (UniProt Q8TD08); assay: KINOMEscan competition binding; details: compound 10.0 µM
[21] = target: RPS6KA6 KD2 (human) (UniProt Q9UK32); assay: KINOMEscan competition binding; details: compound 10.0 µM
[22] = test system: EGFR (human), P00533 [L858R]; assay: KINOMEscan competition binding; details: compound 10.0 µM
[23] = test system: EGFR (human), P00533 [L861Q]; assay: KINOMEscan competition binding; details: compound 10.0 µM
[24] = target: BMPR2 (human) (UniProt Q13873); assay: KINOMEscan competition binding; details: compound 10.0 µM
[25] = test system: EGFR (human), P00533 [752-759 del]; assay: KINOMEscan competition binding; details: compound 10.0 µM
[26] = test system: EGFR (human), P00533 [A750P; 747-749 del]; assay: KINOMEscan competition binding; details: compound 10.0 µM
[27] = target: EGFR (human) (UniProt P00533); assay: KINOMEscan competition binding; details: compound 10.0 µM
[28] = target: MYLK4 (human) (UniProt Q86YV6); assay: KINOMEscan competition binding; details: compound 10.0 µM
[29] = target: TAOK1 (human) (UniProt Q7L7X3); assay: KINOMEscan competition binding; details: compound 10.0 µM
[30] = target: PIM1 (human) (UniProt P11309); assay: KINOMEscan competition binding; details: compound 10.0 µM
[31] = target: TEK (human) (UniProt Q02763); assay: KINOMEscan competition binding; details: compound 10.0 µM
[32] = target: RIPK2 (human) (UniProt O43353); assay: KINOMEscan competition binding; details: compound 10.0 µM
[33] = target: CSNK2A1 (human) (UniProt P68400); assay: KINOMEscan competition binding; details: compound 10.0 µM
[34] = target: DAPK3 (human) (UniProt O43293); assay: KINOMEscan competition binding; details: compound 10.0 µM
[35] = target: CLK2 (human) (UniProt P49760); assay: KINOMEscan competition binding; details: compound 10.0 µM
[36] = target: PIM3 (human) (UniProt Q86V86); assay: KINOMEscan competition binding; details: compound 10.0 µM
[37] = target: STK17A (human) (UniProt Q9UEE5); assay: KINOMEscan competition binding; details: compound 10.0 µM
[38] = target: MYLK3 (human) (UniProt Q32MK0); assay: KINOMEscan competition binding; details: compound 10.0 µM
[39] = test system: EGFR (human), P00533 [P753S; 747-752 del]; assay: KINOMEscan competition binding; details: compound 10.0 µM
[40] = target: PIM2 (human) (UniProt Q9P1W9); assay: SelectScreen, TR FRET
[41] = target: PIM1 (human) (UniProt P11309); assay: SelectScreen, TR FRET

Chain of PIM2 (human) (Q9P1W9 whole entry, looked up): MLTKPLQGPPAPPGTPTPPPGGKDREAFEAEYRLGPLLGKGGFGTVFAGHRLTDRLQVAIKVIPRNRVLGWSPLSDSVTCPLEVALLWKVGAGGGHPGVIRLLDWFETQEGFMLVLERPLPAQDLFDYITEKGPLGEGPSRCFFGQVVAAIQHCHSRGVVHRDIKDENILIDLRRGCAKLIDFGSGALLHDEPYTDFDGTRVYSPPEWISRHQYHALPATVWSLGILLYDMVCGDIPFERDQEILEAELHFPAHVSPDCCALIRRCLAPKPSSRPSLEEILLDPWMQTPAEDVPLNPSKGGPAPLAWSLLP
Chain of PIM1 (human) (P11309 whole entry, looked up): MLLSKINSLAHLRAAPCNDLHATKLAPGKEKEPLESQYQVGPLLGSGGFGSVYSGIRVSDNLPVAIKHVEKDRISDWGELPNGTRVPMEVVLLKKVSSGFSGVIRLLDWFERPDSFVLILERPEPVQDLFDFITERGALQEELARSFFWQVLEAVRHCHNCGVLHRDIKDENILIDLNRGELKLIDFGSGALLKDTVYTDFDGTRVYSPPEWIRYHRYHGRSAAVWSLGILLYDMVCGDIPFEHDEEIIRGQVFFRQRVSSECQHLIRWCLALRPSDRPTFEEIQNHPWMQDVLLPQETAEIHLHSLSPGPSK
Chain of CLK2 (human) (P49760 whole entry, looked up): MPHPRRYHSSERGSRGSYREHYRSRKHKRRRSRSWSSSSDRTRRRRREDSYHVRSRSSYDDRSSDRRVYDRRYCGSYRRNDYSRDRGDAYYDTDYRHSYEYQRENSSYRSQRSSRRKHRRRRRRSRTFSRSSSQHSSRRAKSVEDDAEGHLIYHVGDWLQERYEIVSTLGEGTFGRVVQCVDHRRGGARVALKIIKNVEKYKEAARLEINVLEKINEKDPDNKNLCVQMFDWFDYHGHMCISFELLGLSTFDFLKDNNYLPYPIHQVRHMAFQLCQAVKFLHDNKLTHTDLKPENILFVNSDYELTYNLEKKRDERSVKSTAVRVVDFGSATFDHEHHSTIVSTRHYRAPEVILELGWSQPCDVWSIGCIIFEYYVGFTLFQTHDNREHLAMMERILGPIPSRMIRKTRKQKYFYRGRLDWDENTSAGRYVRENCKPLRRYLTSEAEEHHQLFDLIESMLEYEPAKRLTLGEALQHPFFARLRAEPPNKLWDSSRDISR
Chain of BMPR2 (human) (Q13873 whole entry, looked up): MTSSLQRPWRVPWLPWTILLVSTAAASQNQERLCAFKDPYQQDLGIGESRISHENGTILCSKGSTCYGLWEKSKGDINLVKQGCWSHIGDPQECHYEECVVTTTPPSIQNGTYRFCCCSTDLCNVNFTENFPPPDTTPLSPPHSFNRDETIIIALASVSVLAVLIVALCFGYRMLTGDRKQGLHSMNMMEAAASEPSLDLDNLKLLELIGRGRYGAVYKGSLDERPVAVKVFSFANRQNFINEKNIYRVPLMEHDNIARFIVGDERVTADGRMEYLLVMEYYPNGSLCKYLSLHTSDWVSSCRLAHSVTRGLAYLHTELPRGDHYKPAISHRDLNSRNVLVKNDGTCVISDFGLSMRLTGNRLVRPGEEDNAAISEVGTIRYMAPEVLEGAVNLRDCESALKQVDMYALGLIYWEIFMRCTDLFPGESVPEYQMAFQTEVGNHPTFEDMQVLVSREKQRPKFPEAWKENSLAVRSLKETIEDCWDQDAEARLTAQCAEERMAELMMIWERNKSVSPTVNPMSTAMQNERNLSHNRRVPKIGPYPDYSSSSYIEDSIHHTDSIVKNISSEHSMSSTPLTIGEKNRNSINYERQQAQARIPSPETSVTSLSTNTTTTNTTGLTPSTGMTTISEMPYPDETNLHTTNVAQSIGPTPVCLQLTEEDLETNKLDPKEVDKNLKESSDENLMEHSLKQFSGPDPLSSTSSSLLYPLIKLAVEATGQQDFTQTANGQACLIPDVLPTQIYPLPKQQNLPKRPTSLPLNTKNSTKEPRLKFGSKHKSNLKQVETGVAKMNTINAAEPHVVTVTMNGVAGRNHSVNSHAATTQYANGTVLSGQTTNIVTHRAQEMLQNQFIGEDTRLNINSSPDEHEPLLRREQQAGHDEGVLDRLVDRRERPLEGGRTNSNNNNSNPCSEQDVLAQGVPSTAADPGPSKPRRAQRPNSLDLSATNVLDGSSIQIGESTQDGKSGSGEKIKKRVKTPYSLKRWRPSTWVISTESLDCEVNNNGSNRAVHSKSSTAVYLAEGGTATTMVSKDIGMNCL
Chain of MYLK4 (human) (Q86YV6 whole entry, looked up): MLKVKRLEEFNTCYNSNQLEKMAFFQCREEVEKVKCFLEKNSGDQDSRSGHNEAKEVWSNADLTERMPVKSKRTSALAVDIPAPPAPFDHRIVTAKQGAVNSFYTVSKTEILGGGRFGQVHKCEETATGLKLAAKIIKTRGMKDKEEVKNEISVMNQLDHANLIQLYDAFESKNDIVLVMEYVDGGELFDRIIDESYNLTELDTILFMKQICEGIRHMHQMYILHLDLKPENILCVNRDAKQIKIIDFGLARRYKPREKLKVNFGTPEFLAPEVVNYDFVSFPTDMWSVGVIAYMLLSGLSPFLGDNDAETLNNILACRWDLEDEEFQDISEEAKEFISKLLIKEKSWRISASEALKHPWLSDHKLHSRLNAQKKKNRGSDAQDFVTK
Chain of PIK3CD (human) (O00329 whole entry, looked up): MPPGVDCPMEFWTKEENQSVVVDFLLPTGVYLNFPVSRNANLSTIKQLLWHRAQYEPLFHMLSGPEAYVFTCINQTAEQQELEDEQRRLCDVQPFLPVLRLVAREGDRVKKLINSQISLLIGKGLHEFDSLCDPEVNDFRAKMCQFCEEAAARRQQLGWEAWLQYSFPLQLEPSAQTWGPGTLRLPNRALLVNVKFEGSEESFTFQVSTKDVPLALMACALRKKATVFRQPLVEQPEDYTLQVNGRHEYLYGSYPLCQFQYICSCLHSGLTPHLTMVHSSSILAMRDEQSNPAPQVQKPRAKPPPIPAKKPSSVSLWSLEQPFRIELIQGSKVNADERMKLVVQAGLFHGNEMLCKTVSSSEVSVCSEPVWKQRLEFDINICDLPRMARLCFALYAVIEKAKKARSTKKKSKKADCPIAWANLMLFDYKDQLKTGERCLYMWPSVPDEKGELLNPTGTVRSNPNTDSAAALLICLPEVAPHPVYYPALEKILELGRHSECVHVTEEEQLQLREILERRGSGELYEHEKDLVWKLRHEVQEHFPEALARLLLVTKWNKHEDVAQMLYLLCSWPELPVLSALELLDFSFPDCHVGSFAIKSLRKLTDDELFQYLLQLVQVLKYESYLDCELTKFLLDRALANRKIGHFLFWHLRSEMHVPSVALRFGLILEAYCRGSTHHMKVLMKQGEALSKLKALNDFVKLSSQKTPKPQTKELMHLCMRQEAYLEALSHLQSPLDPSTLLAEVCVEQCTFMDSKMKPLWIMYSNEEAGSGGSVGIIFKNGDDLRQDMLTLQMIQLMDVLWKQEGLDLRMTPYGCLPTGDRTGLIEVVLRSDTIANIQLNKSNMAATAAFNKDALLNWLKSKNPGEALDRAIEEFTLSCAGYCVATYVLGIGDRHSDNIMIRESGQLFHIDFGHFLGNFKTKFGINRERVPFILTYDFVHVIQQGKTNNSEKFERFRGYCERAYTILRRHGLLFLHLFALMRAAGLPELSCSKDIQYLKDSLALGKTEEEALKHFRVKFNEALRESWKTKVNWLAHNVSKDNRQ
Chain of STK17B (human) (O94768 whole entry, looked up): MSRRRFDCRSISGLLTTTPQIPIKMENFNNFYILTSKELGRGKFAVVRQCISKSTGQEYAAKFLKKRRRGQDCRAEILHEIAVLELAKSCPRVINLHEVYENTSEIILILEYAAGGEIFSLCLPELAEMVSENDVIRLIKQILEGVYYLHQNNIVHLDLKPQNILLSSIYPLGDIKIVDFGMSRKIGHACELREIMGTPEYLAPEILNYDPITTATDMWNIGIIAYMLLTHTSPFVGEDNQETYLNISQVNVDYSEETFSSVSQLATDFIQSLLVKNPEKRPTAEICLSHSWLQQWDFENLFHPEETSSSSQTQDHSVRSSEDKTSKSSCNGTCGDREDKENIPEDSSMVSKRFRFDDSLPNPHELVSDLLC
Chain of CSNK2A1 (human) (P68400 whole entry, looked up): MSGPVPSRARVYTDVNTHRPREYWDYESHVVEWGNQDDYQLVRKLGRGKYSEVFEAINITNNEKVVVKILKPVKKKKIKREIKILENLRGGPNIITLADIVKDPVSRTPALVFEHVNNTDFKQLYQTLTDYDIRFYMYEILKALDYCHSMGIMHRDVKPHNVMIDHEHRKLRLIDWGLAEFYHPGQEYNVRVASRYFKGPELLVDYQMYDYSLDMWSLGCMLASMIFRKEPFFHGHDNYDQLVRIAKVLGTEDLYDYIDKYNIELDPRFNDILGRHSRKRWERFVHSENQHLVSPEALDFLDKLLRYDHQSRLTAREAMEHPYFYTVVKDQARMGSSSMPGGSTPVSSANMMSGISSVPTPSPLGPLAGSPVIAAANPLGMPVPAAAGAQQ
Chain of MAPK15 (human) (Q8TD08 whole entry, looked up): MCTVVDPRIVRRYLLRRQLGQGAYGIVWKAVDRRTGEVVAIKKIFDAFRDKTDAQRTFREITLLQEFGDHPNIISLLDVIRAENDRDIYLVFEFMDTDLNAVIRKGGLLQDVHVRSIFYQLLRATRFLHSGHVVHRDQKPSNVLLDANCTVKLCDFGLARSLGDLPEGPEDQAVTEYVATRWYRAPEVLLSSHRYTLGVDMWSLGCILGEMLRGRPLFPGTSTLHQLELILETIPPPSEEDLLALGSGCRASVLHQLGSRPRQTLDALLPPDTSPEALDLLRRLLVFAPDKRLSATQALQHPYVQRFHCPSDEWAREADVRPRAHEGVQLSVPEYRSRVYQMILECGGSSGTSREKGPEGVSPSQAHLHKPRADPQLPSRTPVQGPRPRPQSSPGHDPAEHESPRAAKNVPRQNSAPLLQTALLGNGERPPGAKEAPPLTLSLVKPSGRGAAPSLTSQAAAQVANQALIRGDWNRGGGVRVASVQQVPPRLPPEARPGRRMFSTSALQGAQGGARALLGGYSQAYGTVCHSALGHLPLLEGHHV

`O=C1NC(=O)/C(=C/c2ccc(-c3ccc(F)cc3O)o2)S1` gave a kinase still bound, per cent of control [1] of 19%, a kinase still bound, per cent of control [2] of 10% and a kinase still bound, per cent of control [3] of 9.3%. The kinase still bound, per cent of control [4] was 0.2%, the kinase still bound, per cent of control [5] was 22% and the kinase still bound, per cent of control [6] was 9.9%. It also gave a kinase still bound, per cent of control [7] of 27%, a kinase still bound, per cent of control [8] of 25% and a kinase still bound, per cent of control [9] of 33%. The kinase still bound, per cent of control [10] was 35%, the kinase still bound, per cent of control [11] was 5% and the kinase still bound, per cent of control [12] was 19%. It also gave a kinase still bound, per cent of control [13] of 2%, a kinase still bound, per cent of control [14] of 4% and a kinase still bound, per cent of control [15] of 4.2%. For the same compound, the kinase still bound, per cent of control [16] was 3.3%, the kinase still bound, per cent of control [17] was 15% and the kinase still bound, per cent of control [18] was 1.9%. The kinase still bound, per cent of control [19] was 12%, the kinase still bound, per cent of control [20] was 3.6% and the kinase still bound, per cent of control [21] was 18%. It also gave a kinase still bound, per cent of control [22] of 20%, a kinase still bound, per cent of control [23] of 28% and a kinase still bound, per cent of control [24] of 12%. The kinase still bound, per cent of control [25] was 9.8%, the kinase still bound, per cent of control [26] was 5.8% and the kinase still bound, per cent of control [27] was 29%. The kinase still bound, per cent of control [28] was 17%, the kinase still bound, per cent of control [29] was 8.4% and the kinase still bound, per cent of control [30] was 2.7%. The kinase still bound, per cent of control [31] was 2.1%, the kinase still bound, per cent of control [32] was 32% and the kinase still bound, per cent of control [33] was 4.4%. The kinase still bound, per cent of control [34] was 25%, the kinase still bound, per cent of control [35] was 27% and the kinase still bound, per cent of control [36] was 4.8%. For the same compound, the kinase still bound, per cent of control [37] was 1.5%, the kinase still bound, per cent of control [38] was 29% and the kinase still bound, per cent of control [39] was 14%. It also gave an IC50 [40] of 158 nM and an IC50 [41] of 94 nM.
